From patent US8871753B2, “Macrocyclic compounds and their use as kinase inhibitors” (Incyte Corporation, priority 2008, dated 2014)
pIC50: −log10 of the molar value.

Key:
[1] = target: T1, human JAK1 (a.a. 837-1142) (Homo sapiens, UniProt P23458); assay: In vitro JAK kinase assay (HTRF, phosphorylation of a biotinylated peptide), JAK1; assay type: biochemical; details: Table D1; read-out: JAK1 IC50
T1 construct: human JAK1 (a.a. 837-1142); His tag (N); made in house; host or cells: insect cells (baculovirus)
Procedure: (§1) The catalytic activity of JAK1, JAK2 or JAK3 was assayed by measuring the phosphorylation of a biotinylated peptide. The phosphorylated peptide was detected by homogenous time resolved fluorescence (HTRF). […] The ATP concentration in the reactions was 90 μM for JAK1, 30 μM for JAK2 and 3 μM for JAK3. Reactions were carried out at room temperature for 1 hr and then stopped with 20 μL 45 mM EDTA, 300 nM SA-APC, 6 nM Eu-Py20 in assay buffer (Perkin Elmer, Boston, Mass.). Binding to the Europium labeled antibody took place for 40 minutes and HTRF signal was measured on a Fusion plate reader (Perkin Elmer, Boston, Mass.).
(§2) The catalytic activity of JAK1, JAK2 or JAK3 was assayed by measuring the phosphorylation of a biotinylated peptide. The phosphorylated peptide was detected by homogenous time resolved fluorescence (HTRF). […] Reactions were carried out at room temperature for 1 hr and then stopped with 20 μL 45 mM EDTA, 300 nM SA-APC, 6 nM Eu-Py20 in assay buffer (Perkin Elmer, Boston, Mass.). Binding to the Europium labeled antibody took place for 40 minutes and HTRF signal was measured on a Fusion plate reader (Perkin Elmer, Boston, Mass.).

[2] = target: T2, human JAK2 (a.a. 828-1132) (Homo sapiens, UniProt O60674); assay: In vitro JAK kinase assay (HTRF, phosphorylation of a biotinylated peptide), JAK2; assay type: biochemical; details: Table D1
T2 construct: JAK2 (a.a. 828-1132); His tag (N); made in house; host or cells: insect cells (baculovirus)
Procedure: as §1, §2

T2 sequence (O60674 828-1132): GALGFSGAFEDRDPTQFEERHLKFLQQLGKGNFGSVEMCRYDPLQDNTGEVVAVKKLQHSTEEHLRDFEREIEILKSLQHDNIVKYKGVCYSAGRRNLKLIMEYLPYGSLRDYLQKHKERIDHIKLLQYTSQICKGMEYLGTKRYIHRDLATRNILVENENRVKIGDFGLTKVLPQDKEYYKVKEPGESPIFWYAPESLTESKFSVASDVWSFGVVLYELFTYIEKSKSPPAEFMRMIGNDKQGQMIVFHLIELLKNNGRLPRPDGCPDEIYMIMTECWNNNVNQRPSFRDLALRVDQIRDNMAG
T1 sequence (P23458 849-1154): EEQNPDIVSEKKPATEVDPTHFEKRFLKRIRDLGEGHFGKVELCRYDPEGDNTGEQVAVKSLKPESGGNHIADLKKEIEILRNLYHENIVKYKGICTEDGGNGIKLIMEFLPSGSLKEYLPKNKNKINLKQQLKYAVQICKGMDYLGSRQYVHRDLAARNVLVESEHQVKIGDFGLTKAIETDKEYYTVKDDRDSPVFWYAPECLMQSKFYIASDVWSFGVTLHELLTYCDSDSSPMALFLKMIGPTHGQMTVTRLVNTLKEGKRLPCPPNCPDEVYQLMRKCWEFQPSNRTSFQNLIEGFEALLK

Compound	pIC50 [1]	pIC50 [2]
Cn1cncc1C(=O)N1CC[C@H](CC(=O)Nc2ccc3cc2CCc2cncc(c2)Nc2ncc(Cl)c(n2)N3)C1 [Example D111, N-[6-Chloro-2,4,8,18,22-pentaazatetracyclo[14.3.1.1(3,7).1(9,13)]docosa-1(20),3(22),4,6,9(21),10,12,16,18-nonaen-12-yl]-2-{(3R)-1-[(1-methyl-1H-imidazol-5-yl)carbonyl]pyrrolidin-3-yl}acetamide tris(trifluoroacetate)]	7.21	6.16
CS(=O)(=O)N1CC[C@@H](CC(=O)Nc2ccc3cc2CCc2cncc(c2)Nc2ncc(Cl)c(n2)N3)C1 [Example D127, N-[6-Chloro-2,4,8,18,22-pentaazatetracyclo[14.3.1.1(3,7).1(9,13)]docosa-1(20),3(22),4,6,9(21),10,12,16,18-nonaen-12-yl]-2-[(3S)-1-(methylsulfonyl)pyrrolidin-3-yl]acetamide bis(trifluoroacetate)]	7.92	6.70
O=C(C[C@H]1CCN(C(=O)c2nc[nH]n2)C1)Nc1ccc2cc1CCc1cncc(c1)Nc1ncc(Cl)c(n1)N2 [Example D128, N-[6-Chloro-2,4,8,18,22-pentaazatetracyclo[14.3.1.1(3,7).1(9,13)]docosa-1(20),3(22),4,6,9(21),10,12,16,18-nonaen-12-yl]-2-[(3R)-1-(1H-1,2,4-triazol-3-ylcarbonyl)pyrrolidin-3-yl]acetamide bis(trifluoroacetate)]	7.68	6.70
O=C(C[C@@H]1CCN(C(=O)Nc2cccnc2)C1)Nc1ccc2cc1CCc1cncc(c1)Nc1ncc(Cl)c(n1)N2 [Example D117, (3S)-3-(2-{[6-Chloro-2,4,8,18,22-pentaazatetracyclo[14.3.1.1(3,7).1(9,13)]docosa-1(20),3(22),4,6,9(21),10,12,16,18-nonaen-12-yl]amino}-2-oxoethyl)-N-pyridin-3-ylpyrrolidine-1-carboxamide tris(trifluoroacetate)]	7.41	6.41
N#Cc1cccc(NC(=O)N2CC[C@@H](CC(=O)Nc3ccc4cc3CCc3cncc(c3)Nc3ncc(Cl)c(n3)N4)C2)c1 [Example D115, (3S)-3-(2-{[6-Chloro-2,4,8,18,22-pentaazatetracyclo[14.3.1.1(3,7).1(9,13)]docosa-1(20),3(22),4,6,9(21),10,12,16,18-nonaen-12-yl]amino}-2-oxoethyl)-N-(3-cyanophenyl)pyrrolidine-1-carboxamide bis(trifluoroacetate)]	7.72	6.79
Cc1cc(C(=O)N2CCC[C@H](CC(=O)Nc3ccc4cc3CCc3cncc(c3)Nc3ncc(Cl)c(n3)N4)C2)no1 [Example D209, N-[6-Chloro-2,4,8,18,22-pentaazatetracyclo[14.3.1.1(3,7).1(9,13)]docosa-1(20),3(22),4,6,9(21),10,12,16,18-nonaen-12-yl]-2-{(3R)-1-[(5-methylisoxazol-3-yl)carbonyl]piperidin-3-yl}acetamide bis(trifluoroacetate)]	7.19	6.34
N#Cc1ccc(NC(=O)N2CC[C@@H](CC(=O)Nc3ccc4cc3CCc3cncc(c3)Nc3ncc(Cl)c(n3)N4)C2)cc1 [Example D114, (3S)-3-(2-{[6-Chloro-2,4,8,18,22-pentaazatetracyclo[14.3.1.1(3,7).1(9,13)]docosa-1(20),3(22),4,6,9(21),10,12,16,18-nonaen-12-yl]amino}-2-oxoethyl)-N-(4-cyanophenyl)pyrrolidine-1-carboxamide bis(trifluoroacetate)]	8.05	7.08
O=C(C[C@@H]1CCN(C(=O)c2c[nH]nn2)C1)Nc1ccc2cc1CCc1cncc(c1)Nc1ncc(Cl)c(n1)N2 [Example D132, N-[6-Chloro-2,4,8,18,22-pentaazatetracyclo[14.3.1.1(3,7).1(9,13)]docosa-1(20),3(22),4,6,9(21),10,12,16,18-nonaen-12-yl]-2-[(3S)-1-(1H-1,2,3-triazol-4-ylcarbonyl)pyrrolidin-3-yl]acetamide bis(trifluoroacetate)]	8.49	7.37
O=C(C[C@@H]1CCN(C(=O)Nc2ccc(F)cc2)C1)Nc1ccc2cc1CCc1cncc(c1)Nc1ncc(Cl)c(n1)N2 [Example D118, (3S)-3-(2-{[6-Chloro-2,4,8,18,22-pentaazatetracyclo[14.3.1.1(3,7).1(9,13)]docosa-1(20),3(22),4,6,9(21),10,12,16,18-nonaen-12-yl]amino}-2-oxoethyl)-N-(4-fluorophenyl)pyrrolidine-1-carboxamide bis(trifluoroacetate)]	7.92	6.63
O=C(C[C@H]1CCN(C(=O)Nc2ccccc2F)C1)Nc1ccc2cc1CCc1cncc(c1)Nc1ncc(Cl)c(n1)N2 [Example D104, (3R)-3-(2-{[6-Chloro-2,4,8,18,22-pentaazatetracyclo[14.3.1.1(3,7).1(9,13)]docosa-1(20),3(22),4,6,9(21),10,12,16,18-nonaen-12-yl]amino}-2-oxoethyl)-N-(2-fluorophenyl)pyrrolidine-1-carboxamide bis(trifluoroacetate)]	8.07	6.59
O=C1c2ccccc2C(=O)N1CCS(=O)(=O)Nc1ccc2cc1CCc1cncc(c1)Nc1ncc(Cl)c(n1)N2 [Example D210, N-[6-Chloro-2,4,8,18,22-pentaazatetracyclo[14.3.1.1(3,7).1(9,13)]docosa-1(20),3(22),4,6,9(21),10,12,16,18-nonaen-12-yl]-2-(1,3-dioxo-1,3-dihydro-2H-isoindol-2-yl)ethanesulfonamide bis(trifluoroacetate)]	9.00	7.85

Other lines, results leading:

pIC50 [1]	pIC50 [2]	Compound
7.70	6.40	O=C(C[C@@H]1CCN(C(=O)c2ccno2)C1)Nc1ccc2cc1CCc1cncc(c1)Nc1ncc(Cl)c(n1)N2 [Example D120, N-[6-Chloro-2,4,8,18,22-pentaazatetracyclo[14.3.1.1(3,7).1(9,13)]docosa-1(20),3(22),4,6,9(21),10,12,16,18-nonaen-12-yl]-2-[(3S)-1-(isoxazol-5-ylcarbonyl)pyrrolidin-3-yl]acetamide bis(trifluoroacetate)]
7.37	6.30	Cn1cc(C(=O)N2CC[C@@H](CC(=O)Nc3ccc4cc3CCc3cncc(c3)Nc3ncc(Cl)c(n3)N4)C2)cn1 [Example D122, N-[6-Chloro-2,4,8,18,22-pentaazatetracyclo[14.3.1.1(3,7).1(9,13)]docosa-1(20),3(22),4,6,9(21),10,12,16,18-nonaen-12-yl]-2-{(3S)-1-[(1-methyl-1H-pyrazol-4-yl)carbonyl]pyrrolidin-3-yl}acetamide bis(trifluoroacetate)]
7.14	6.05	O=C(C[C@@H]1CCN(C(=O)c2cn[nH]c2)C1)Nc1ccc2cc1CCc1cncc(c1)Nc1ncc(Cl)c(n1)N2 [Example D133, N-[6-Chloro-2,4,8,18,22-pentaazatetracyclo[14.3.1.1(3,7).1(9,13)]docosa-1(20),3(22),4,6,9(21),10,12,16,18-nonaen-12-yl]-2-[(3S)-1-(1H-pyrazol-4-ylcarbonyl)pyrrolidin-3-yl]acetamide bis(trifluoroacetate)]
7.12	6.26	Cn1ccc(C(=O)N2CC[C@@H](CC(=O)Nc3ccc4cc3CCc3cncc(c3)Nc3ncc(Cl)c(n3)N4)C2)n1 [Example D121, N-[6-Chloro-2,4,8,18,22-pentaazatetracyclo[14.3.1.1(3,7).1(9,13)]docosa-1(20),3(22),4,6,9(21),10,12,16,18-nonaen-12-yl]-2-{(3S)-1-[(1-methyl-1H-pyrazol-3-yl)carbonyl]pyrrolidin-3-yl}acetamide bis(trifluoroacetate)]
7.48	6.22	O=C(C[C@H]1CCN(C(=O)c2cn[nH]c2)C1)Nc1ccc2cc1CCc1cncc(c1)Nc1ncc(Cl)c(n1)N2 [Example D129-b, N-[6-Chloro-2,4,8,18,22-pentaazatetracyclo[14.3.1.1(3,7).1(9,13)]docosa-1(20),3(22),4,6,9(21),10,12,16,18-nonaen-12-yl]-2-[(3R)-1-(1H-pyrazol-4-ylcarbonyl)pyrrolidin-3-yl]acetamide bis(trifluoroacetate)]
7.36	6.45	O=C(C[C@@H]1CCN(C(=O)c2cc[nH]n2)C1)Nc1ccc2cc1CCc1cncc(c1)Nc1ncc(Cl)c(n1)N2 [Example D134, N-[6-Chloro-2,4,8,18,22-pentaazatetracyclo[14.3.1.1(3,7).1(9,13)]docosa-1(20),3(22),4,6,9(21),10,12,16,18-nonaen-12-yl]-2-[(3S)-1-(1H-pyrazol-3-ylcarbonyl)pyrrolidin-3-yl]acetamide bis(trifluoroacetate)]
7.21	6.61	Cc1oncc1C(=O)N1CC[C@H](CC(=O)Nc2ccc3cc2CCc2cncc(c2)Nc2ncc(Cl)c(n2)N3)C1 [Example D108, N-[6-Chloro-2,4,8,18,22-pentaazatetracyclo[14.3.1.1(3,7).1(9,13)]docosa-1(20),3(22),4,6,9(21),10,12,16,18-nonaen-12-yl]-2-{(3R)-1-[(5-methylisoxazol-4-yl)carbonyl]pyrrolidin-3-yl}acetamide bis(trifluoroacetate)]
